# From PubChem BioAssay AID2060513 (Molecular Pharmacology Branch, DTP, NCI, 2025)
# Several values for one entry are separate records, joined by “and”; a condition that tells them apart may be missing. Equal entries are not always repeated.
# Tested on: 299254-011-R-J1-PDC complex spheroids viability
# Assay: Anticancer human tumor 299254-011-R-J1-PDC patient-derived melanoma cell line growth inhibition [GQUAD]
# Details: for viability, T/C: stronger effect = lower value
# Description: DNA G-quadruplex Stabilizer Agents in Combinations in Complex Spheroids
# A high-throughput screen of multi-cell type tumor spheroids was designed to identify active combinations of DNA G-quadruplex stabilizer agents and targeted small molecules. Complex spheroids include a stromal component modeled by human endothelial cells (HUVEC) and fibroblasts modeled by human mesenchymal stem cells (MSCs). The concentration ranges selected for each drug and investigational agent were based upon clinically achievable concentrations if the clinical Cmax of the agent was known.
# Compounds. The drugs and investigational agents: pidnarulex (CX-5461; NSC782164), APTO-253 (NSC789042), BRACO-19 (NSC847499), peposertib (NSC802822), ceralasertib (NSC780249), elimusertib (NSC800525), camonsertib (NSC841442), AZD-1390 (NSC803789), olaparib (NSC753686), talazoparib (NSC767125), ART-558 (NSC835418), sotorasib (NSC818433), MRTX-1133 (NSC836407), SN-38 (NSC673596), topotecan (NSC609699), etoposide (NSC141540), doxorubicin (NSC123127), gemcitabine (NSC613327), 5-fluorouracil (NSC19893), paclitaxel (NSC125973), vemurafenib (NSC761431), panobinostat (NSC761190), R-306465 (JNJ-16241199; NSC773264), adavosertib (NSC754352), TP-3654 (NSC805149), carboplatin (NSC241240), KSQ-4279 (NSC840948), and staurosporine (NSC755774) were obtained from the National Cancer Institute (NCI) Developmental Therapeutics Program Chemical Repository (34). The FDA-approved anticancer drug set is available from the NCI Developmental Therapeutics Program. […] The stock solutions were prepared in dimethyl sulfoxide (DMSO, Sigma-Aldrich, St. Louis, MO, cat. D2650) at 800-fold the tested concentration and stored at -70 degrees C prior to their use. All drugs and investigational agents were tested over a range starting from a high concentration at or near the clinical Cmax and decreasing in half-log increments. If the clinical Cmax for an agent had not been determined, the highest concentration tested was 10 microM.
# 2.3 Cell Culture. All cells were maintained in an incubator at 37 degrees C and 5% CO2 with 95% humidity. The PDC lines were cultured according to standard operating procedures established by the NCI PDMR. All PDCs were thawed and cultured in Matrigel-coated flasks prepared with a working solution of 1X Ham's F-12 nutrient mix, without supplementation (Invitrogen, cat. 11765054), 100 U/mL penicillin-streptomycin (Invitrogen, cat. 15140122), and 2.5% Matrigel (Corning Inc., cat. 354248) for the first three passages. The 857933-349-R-J2-PDC line was cultured in 6C/Colon 1B media, which includes advanced DMEM/F-12 (Thermo Fisher Scientific, cat. 12634028), 10 mM HEPES (Thermo Fisher Scientific, cat. 15630080), 1X GlutaMAX supplement (Thermo Fisher Scientific, cat. 35050061), 0.1 mg/mL primocin (InvivoGen, cat. ant-pm-2), 10% defined fetal bovine serum, heat inactivated (HyClone Laboratories Inc., cat. SH30070.03HI), 50% L-WRN conditioned media (ATCC, cat. CRL-3276), 1.25 mM N-Acetyl-L-cysteine (Sigma-Aldrich, cat. A9165), 10 mM nicotinamide (Sigma-Aldrich, cat. N0636), 1X B-27 supplement (Thermo Fisher Scientific, cat. 17504044), 1X N-2 supplement (Thermo Fisher Scientific, cat. 17502048), 10 microM Y-27632 dihydrochloride (Tocris Bioscience, cat. 1254), and 50 ng/mL human EGF recombinant protein (Thermo Fisher Scientific, cat. PHG0311). The 485176-168-R4-J1-PDC line was cultured in Panc media, which includes all 6C/Colon 1B media components plus 100 ng/mL human FGF-10 (Thermo Fisher Scientific, cat. 100-26), 500 nM SB-431542 (Selleckchem, cat. S1067), and gastrin (Tocris, cat. 3006).
# […]
# [1] = curve of first compound, second compound 0.0316 µM
# [2] = curve of first compound, second compound 0.1 µM
# [3] = curve of first compound, second compound 0.316 µM
# [4] = curve of first compound, second compound 1 µM
# [5] = curve of first compound, second compound 3.16 µM
# [6] = curve of first compound, second compound 10 µM
# [7] = second compound 0.0316 µM, first compound 0.0316 µM
# [8] = second compound 0.0316 µM, first compound 0.1 µM
# [9] = second compound 0.0316 µM, first compound 0.316 µM
# [10] = second compound 0.0316 µM, first compound 1 µM
# [11] = second compound 0.0316 µM, first compound 3.16 µM
# [12] = second compound 0.0316 µM, first compound 10 µM
# [13] = second compound 0.1 µM, first compound 0.0316 µM
# [14] = second compound 0.1 µM, first compound 0.1 µM
# [15] = second compound 0.1 µM, first compound 0.316 µM
# [16] = second compound 0.1 µM, first compound 1 µM
# [17] = second compound 0.1 µM, first compound 3.16 µM
# [18] = second compound 0.1 µM, first compound 10 µM
# [19] = second compound 0.316 µM, first compound 0.0316 µM
# [20] = second compound 0.316 µM, first compound 0.1 µM
# [21] = second compound 0.316 µM, first compound 0.316 µM
# [22] = second compound 0.316 µM, first compound 1 µM
# [23] = second compound 0.316 µM, first compound 3.16 µM
# [24] = second compound 0.316 µM, first compound 10 µM
# [25] = second compound 1 µM, first compound 0.0316 µM
# [26] = second compound 1 µM, first compound 0.1 µM
# [27] = second compound 1 µM, first compound 0.316 µM
# [28] = second compound 1 µM, first compound 1 µM
# [29] = second compound 1 µM, first compound 3.16 µM
# [30] = second compound 1 µM, first compound 10 µM
# [31] = second compound 3.16 µM, first compound 0.0316 µM
# [32] = second compound 3.16 µM, first compound 0.1 µM
# [33] = second compound 3.16 µM, first compound 0.316 µM
# [34] = second compound 3.16 µM, first compound 1 µM
# [35] = second compound 3.16 µM, first compound 3.16 µM
# [36] = second compound 3.16 µM, first compound 10 µM
# [37] = second compound 10 µM, first compound 0.0316 µM
# [38] = second compound 10 µM, first compound 0.1 µM
# [39] = second compound 10 µM, first compound 0.316 µM
# [40] = second compound 10 µM, first compound 1 µM
# [41] = second compound 10 µM, first compound 3.16 µM
# [42] = second compound 10 µM, first compound 10 µM
# 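Further: spheroids exposed to the agents for seven days before readout.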
# 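Wherever viability, T/C is given: percent viability relative to DMSO vehicle control wells = 100%.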
smiles,measurement,setting,value
COc1cc(C2c3cc4c(cc3C(OC3OC5COC(C)OC5C(O)C3O)C3COC(=O)C23)OCO4)cc(OC)c1O (stereo unspecified) + Cc1[nH]c2ccc(F)cc2c1-c1nc2c3cccnc3c3ncccc3c2[nH]1,IC50,[1],> 10 µM
same,IC50,[2],> 10 µM
same,IC50,[3],> 10 µM
same,IC50,[4],> 10 µM
same,IC50,[5],> 10 µM
same,IC50,[6],> 10 µM
same,"viability, T/C",[7],81.2%
same,"viability, T/C",[8],79.1%
same,"viability, T/C",[9],108%
same,"viability, T/C",[10],85%
same,"viability, T/C",[11],94.5%
same,"viability, T/C",[12],76.5%
same,"viability, T/C",[13],100%
same,"viability, T/C",[14],97.5%
same,"viability, T/C",[15],81.2%
same,"viability, T/C",[16],76.5%
same,"viability, T/C",[17],99.2%
same,"viability, T/C",[18],80.1%
same,"viability, T/C",[19],100%
same,"viability, T/C",[20],77.3%
same,"viability, T/C",[21],82.5%
same,"viability, T/C",[22],86.9%
same,"viability, T/C",[23],84.3%
same,"viability, T/C",[24],70.5%
same,"viability, T/C",[25],101%
same,"viability, T/C",[26],86%
same,"viability, T/C",[27],106%
same,"viability, T/C",[28],87.1%
same,"viability, T/C",[29],96.7%
same,"viability, T/C",[30],72.2%
same,"viability, T/C",[31],99.9%
same,"viability, T/C",[32],84.9%
same,"viability, T/C",[33],89.5%
same,"viability, T/C",[34],89.4%
same,"viability, T/C",[35],89.5%
same,"viability, T/C",[36],95%
same,"viability, T/C",[37],89.7%
same,"viability, T/C",[38],83%
same,"viability, T/C",[39],95.3%
same,"viability, T/C",[40],86.1%
same,"viability, T/C",[41],96.2%
same,"viability, T/C",[42],56.5%
CC(C)(O)C1CCC(Nc2ccc3ncc(-c4cccc(C(F)(F)F)c4)n3n2)CC1 (stereo unspecified),"viability, T/C",compound 0.0316 µM,108% and 89.2% and 122%
same,"viability, T/C",compound 0.1 µM,113% and 90% and 91.5%
same,"viability, T/C",compound 0.316 µM,91.8% and 99.5% and 99.2%
same,"viability, T/C",compound 1 µM,98% and 96.9% and 84.3%
same,"viability, T/C",compound 3.16 µM,95.5% and 102% and 70.9%
same,"viability, T/C",compound 10 µM,119% and 110% and 103%
same,IC50,curve of compound,> 10 µM
CCCS(=O)(=O)Nc1ccc(F)c(C(=O)c2c[nH]c3ncc(-c4ccc(Cl)cc4)cc23)c1F + Cc1cnc(CNC(=O)c2c(=O)c3ccc(N4CCCN(C)CC4)nc3n3c2sc2ccccc23)cn1,IC50,[1],9.46 µM
same,IC50,[2],8.9 µM
same,IC50,[3],9.48 µM
same,IC50,[4],8.5 µM
same,IC50,[5],7.67 µM
same,IC50,[6],< 0.0316 µM
same,"viability, T/C",[7],107%
same,"viability, T/C",[8],94%
same,"viability, T/C",[9],83.1%
same,"viability, T/C",[10],106%
same,"viability, T/C",[11],130%
same,"viability, T/C",[12],47.1%
same,"viability, T/C",[13],119%
same,"viability, T/C",[14],129%
same,"viability, T/C",[15],92.9%
same,"viability, T/C",[16],128%
same,"viability, T/C",[17],116%
same,"viability, T/C",[18],42.6%
same,"viability, T/C",[19],92.8%
same,"viability, T/C",[20],109%
same,"viability, T/C",[21],92.9%
same,"viability, T/C",[22],99%
same,"viability, T/C",[23],113%
same,"viability, T/C",[24],47.5%
same,"viability, T/C",[25],88.5%
same,"viability, T/C",[26],85%
same,"viability, T/C",[27],105%
same,"viability, T/C",[28],96.8%
same,"viability, T/C",[29],106%
same,"viability, T/C",[30],42.4%
same,"viability, T/C",[31],85.5%
same,"viability, T/C",[32],96.6%
same,"viability, T/C",[33],106%
same,"viability, T/C",[34],91.5%
same,"viability, T/C",[35],118%
same,"viability, T/C",[36],35.1%
same,"viability, T/C",[37],4.58%
same,"viability, T/C",[38],0.48%
same,"viability, T/C",[39],0.57%
same,"viability, T/C",[40],0.54%
same,"viability, T/C",[41],0.42%
same,"viability, T/C",[42],0.34%
